Experimental data as given in patent US8338597B2, “Pyridones useful as inhibitors of kinases” (Vertex Pharmaceuticals Incorporated, priority 2004, dated 2012).
“And” between values parts separate entries of the source, which are not always exact repeats. Equal values may be shown once.

Legend:
Format in all cases: biochemical
Itk [1] = biological target: T1, Itk (Homo sapiens, UniProt Q08881); assay: ITK inhibition assay, radioactive-phosphate incorporation; conditions: [γ-33P]ATP, SAM68 peptide, 25° C.
T1 sequence (Q08881 1-620): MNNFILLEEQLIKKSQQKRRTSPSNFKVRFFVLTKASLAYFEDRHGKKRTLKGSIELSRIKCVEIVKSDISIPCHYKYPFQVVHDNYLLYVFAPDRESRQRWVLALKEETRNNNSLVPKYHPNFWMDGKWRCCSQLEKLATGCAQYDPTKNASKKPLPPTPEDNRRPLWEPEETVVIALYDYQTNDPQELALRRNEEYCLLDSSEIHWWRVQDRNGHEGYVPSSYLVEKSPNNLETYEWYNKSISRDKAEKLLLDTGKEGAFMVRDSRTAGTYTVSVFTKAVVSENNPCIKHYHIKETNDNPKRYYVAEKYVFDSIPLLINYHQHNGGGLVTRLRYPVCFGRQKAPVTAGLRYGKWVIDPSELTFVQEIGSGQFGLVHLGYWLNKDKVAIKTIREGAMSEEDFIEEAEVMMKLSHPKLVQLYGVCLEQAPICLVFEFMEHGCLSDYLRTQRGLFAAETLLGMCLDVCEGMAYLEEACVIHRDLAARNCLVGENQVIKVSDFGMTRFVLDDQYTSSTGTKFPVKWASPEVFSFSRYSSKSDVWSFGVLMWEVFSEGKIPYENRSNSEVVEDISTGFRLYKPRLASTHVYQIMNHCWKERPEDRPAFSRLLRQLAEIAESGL

Btk = Btk (Homo sapiens, UniProt Q06187); assay: BTK inhibition assay, radioactive-phosphate incorporation; conditions: 50 μM [γ-33P]ATP, 25 nM Btk, 25° C.
Method: Compounds were screened for their ability to inhibit Btk using a radioactive-phosphate incorporation assay at Vertex Pharmaceuticals. Assays were carried out in a mixture of 20 mM MOPS (pH 7.0), 10 mM MgCl2, 0.1% BSA and 1 mM DTT. Final substrate concentrations in the assay were 50 μM [γ-33P]ATP (200mCi 33P ATP/mmol ATP, Amersham Pharmacia Biotech, Amersham, UK/Sigma Chemicals) and 2 μM peptide (SAM68 D332-443). Assays were carried out at 25° C. and in the presence of 25 nM Btk. An assay stock buffer solution was prepared containing all of the reagents listed above, with the exception of the peptide and the test compound of interest. 75 μL of the stock solution was placed in a 96 well plate followed by addition of 2 μL of DMSO stock containing serial dilutions of the test compound (typically starting from a final concentration of 15 μM) in duplicate (final DMSO concentration 2%). The plate was preincubated for 15 minutes at 25° C. and the reaction initiated by addition of 25 μL peptide (final concentration 2 μM). Background counts were determined by the addition of […] 0.2M phosphoric acid+0.01% TWEEN to control wells containing assay stock buffer and DMSO prior to initiation with peptide.
The reaction was stopped after 10 minutes by the addition of […] 0.2M phosphoric acid+0.01% TWEEN. A multiscreen phosphocellulose filter 96-well plate (Millipore, Cat no. MAPHN0B50) was pretreated with 100 μL 0.2M phosphoric acid+0.01% TWEEN 20 prior to the addition of […] of the stopped assay mixture. The plate was washed with 4×200 μL 0.2M phosphoric acid+0.01% TWEEN 20. After drying, 30 μL Optiphase ‘SuperMix’ liquid scintillation cocktail (Perkin Elmer) was added to the well prior to scintillation counting (1450 Microbeta Liquid Scintillation Counter, Wallac).
After removing mean background values for all of the data points, Ki(app) data were calculated from non-linear regression analysis using the Prism software package (GraphPad Prism version 3.0cx for Macintosh, GraphPad Software, San Diego Calif., USA).

Rlk = biological target: T2, Rlk (Homo sapiens, UniProt P42681); assay: RLK inhibition assay, standard coupled enzyme assay; conditions: 100 μM ATP, 40 nM Rlk, 30° C.
T2 sequence (P42681 1-527): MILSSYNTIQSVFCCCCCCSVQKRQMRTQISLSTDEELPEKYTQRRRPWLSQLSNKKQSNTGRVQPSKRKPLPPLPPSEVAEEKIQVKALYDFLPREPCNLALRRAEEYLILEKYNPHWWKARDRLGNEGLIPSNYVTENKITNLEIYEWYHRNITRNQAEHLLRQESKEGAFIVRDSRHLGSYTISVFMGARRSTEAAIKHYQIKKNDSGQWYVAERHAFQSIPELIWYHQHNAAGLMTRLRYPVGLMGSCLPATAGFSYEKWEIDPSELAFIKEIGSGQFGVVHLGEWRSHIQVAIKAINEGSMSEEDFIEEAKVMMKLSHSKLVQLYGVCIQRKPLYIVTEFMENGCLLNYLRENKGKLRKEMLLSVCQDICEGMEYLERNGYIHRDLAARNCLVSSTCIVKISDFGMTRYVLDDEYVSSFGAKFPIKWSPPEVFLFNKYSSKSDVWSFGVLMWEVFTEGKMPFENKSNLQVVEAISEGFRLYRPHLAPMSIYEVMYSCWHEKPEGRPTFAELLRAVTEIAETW
Method: Compounds were screened for their ability to inhibit Rlk using a standard coupled enzyme assay (Fox et al., Protein Sci., (1998) 7, 2249). Assays were carried out in a mixture of 20 mM MOPS (pH 7.0), 10 mM MgCl2, 0.1% BSA and 1 mM DTT. Final substrate concentrations in the assay were 100 μM ATP (Sigma Chemicals) and 10 μM peptide (Poly Glu:Tyr 4:1). Assays were carried out at 30° C. and in the presence of 40 nM Rlk. Final concentrations of the components of the coupled enzyme system were 2.5 mM phosphoenolpyruvate, 300 μM NADH, 30 μg/ml pyruvate kinase and 10 μg/ml lactate dehydrogenase.
(§1) An assay stock buffer solution was prepared containing all of the reagents listed above, with the exception of ATP and the test compound of interest. 60 μl of the stock solution was placed in a 96 well plate followed by addition of 2 μA of DMSO stock containing serial dilutions of the test compound (typically starting from a final concentration of 7.5 μM). The plate was preincubated for 10 minutes at 30° C. and the reaction initiated by addition of 5 μl of ATP. Initial reaction rates were determined with a Molecular Devices SpectraMax Plus plate reader over a 10 minute time course. IC50 and Ki data were calculated from non-linear regression analysis using the Prism software package (GraphPad Prism version 3.0cx for Macintosh, GraphPad Software, San Diego Calif., USA).

Itk [2] = biological target: T1, Itk; assay: ITK inhibition assay (UV), standard coupled enzyme assay; conditions: 100 μM ATP, 100 nM Itk, 25° C.
Method: Assays were carried out in a mixture of 20 mM MOPS (pH 7.0), 10 mM MgCl2, 0.1% BSA, 1 mM DTT, 2.5 mM phosphoenolpyruvate, 300 μM NADH, 30 μg/ml pyruvate kinase and 10 μg/ml lactate dehydrogenase. […]
as §1, with “60 μl of the stock solution was placed in a 96 well plate followed by addition of 2 μA of DMSO stock containing serial dilutions of the test compound (typically starting from a final concentration of 7.5 μM).” left out, “25°” for “30°”

Sequence of Btk (Q06187 whole entry, species assumed): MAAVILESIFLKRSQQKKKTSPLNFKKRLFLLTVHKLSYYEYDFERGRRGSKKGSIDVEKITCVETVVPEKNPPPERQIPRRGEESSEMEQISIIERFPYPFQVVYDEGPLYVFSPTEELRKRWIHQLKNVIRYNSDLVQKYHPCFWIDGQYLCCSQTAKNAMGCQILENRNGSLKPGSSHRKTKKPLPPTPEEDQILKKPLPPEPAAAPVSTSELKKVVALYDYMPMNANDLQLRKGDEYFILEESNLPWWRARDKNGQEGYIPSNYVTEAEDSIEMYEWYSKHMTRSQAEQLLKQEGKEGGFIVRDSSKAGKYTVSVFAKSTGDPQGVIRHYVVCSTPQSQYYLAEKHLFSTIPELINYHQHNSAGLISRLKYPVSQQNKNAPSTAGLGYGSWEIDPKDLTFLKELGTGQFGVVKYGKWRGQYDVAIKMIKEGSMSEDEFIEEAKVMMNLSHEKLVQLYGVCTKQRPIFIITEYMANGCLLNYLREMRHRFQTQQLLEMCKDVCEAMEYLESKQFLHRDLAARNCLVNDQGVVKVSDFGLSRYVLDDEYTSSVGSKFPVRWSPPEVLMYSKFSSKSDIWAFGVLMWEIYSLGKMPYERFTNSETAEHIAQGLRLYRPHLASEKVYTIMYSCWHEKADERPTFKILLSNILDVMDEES

Row | Structure (SMILES) | Ki (Itk [1]) [µM] | Ki (Btk) | Ki (Rlk) [µM] | Ki (Itk [2]) [µM]
1 | CN(C)CCN(C)c1nccc(-c2c[nH]c(=O)c(NC(=O)c3ccc(N4CCCCC4)cc3)c2)n1 [II-61] | 0.1 to 1 | > 0.5 µM and < 0.5 µM | – | –
2 | CNCCNc1nccc(-c2c[nH]c(=O)c(NC(=O)c3ccc(N4CCCCC4)cc3)c2)n1 [II-63] | < 0.1 | < 0.5 µM | – | –
3 | CN(C)CCNc1nccc(-c2c[nH]c(=O)c(NC(=O)c3ccc(N4CCCCC4)cc3)c2)n1 [II-58] | < 0.1 | < 0.5 µM | – | –
4 | CC(O)[C@@H](CO)Nc1cccc(-c2c[nH]c(=O)c(NC(=O)c3ccc(N4CCCCC4)cc3)c2)n1 (stereo partly drawn) [II-149] | 0.1 to 1 | > 0.5 µM | > 1 | –
5 | CNc1cccc(-c2c[nH]c(=O)c(NC(=O)c3ccc(C(C)(C)C)cc3)c2)n1 [II-7] | 0.1 to 1 | – | > 1 | 0.1 to 1
6 | CNCCNc1cccc(-c2c[nH]c(=O)c(NC(=O)c3ccc(N4CCCCC4)cc3)c2)n1 [II-51] | < 0.1 | < 0.5 µM | – | –
7 | CNc1ccc(C)c(-c2c[nH]c(=O)c(NC(=O)c3ccc(C(C)(C)C)cc3)c2)c1 [II-43] | 0.1 to 1 | > 0.5 µM | – | –
8 | CC(C)(N)CNc1cccc(-c2c[nH]c(=O)c(NC(=O)c3ccc(N4CCCCC4)cc3)c2)n1 [II-112] | < 0.1 | < 0.5 µM | < 1 | –
9 | CNc1nccc(-c2c[nH]c(=O)c(NC(=O)c3ccc(N4CCNCC4)cc3)c2)n1 [II-77] | < 0.1 | < 0.5 µM | < 1 | –
10 | CNc1nccc(-c2c[nH]c(=O)c(NC(=O)c3ccc(N4CCN(C(C)C)CC4)cc3)c2)n1 [II-78] | < 0.1 | < 0.5 µM | < 1 | –
11 | CNc1nccc(-c2c[nH]c(=O)c(NC(=O)c3ccc(N4CCC[C@H]4CN4CCCC4)cc3)c2)n1 [II-80] | < 0.1 | < 0.5 µM | < 1 | –
12 | CNc1cncc(-c2c[nH]c(=O)c(NC(=O)c3ccc(N4CCCCC4)cc3)c2)n1 [II-114] | – | > 0.5 µM | > 1 | –
